This note sets out measurements from patent publication US12624034B2, “Non-covalent modifiers of AKT1 and uses thereof” (Terremoto Biosciences, Inc., priority 2023, dated 2026).

One assay addresses T1, AKT2 (Homo sapiens, UniProt P31751).
T1 construct: expressed in transfected cells; host or cells: HEK293
As to the kind of experiment: Live cell AKT2 target engagement by NanoBRET competitive probe displacement in HEK293 cells. The conditions noted are these: 2 h at 37° C., read-out: AKT2 IC50. The format is binding. The protocol:
(§1) Determining live cell AKT1 E17K, AKT1 WT, and AKT2 target engagement by NanoBRET competitive probe displacement. […] Briefly, HEK293 cells were transfected with plasmids encoding kinase-NanoLuciferase fusion proteins overnight. Cells were then treated with serial dilutions of compound and an ˜EC50 concentration of fluorescently-tagged ATP-competitive tracer (Promega). After incubation for 2 h at 37° C., luciferase substrate and extracellular luciferase inhibitor were added to all wells, and luminescent intensity at 460 nm and 600 nm were measured on a multimode plate-reader. The ratio of E600/E460 was calculated to give the tracer engagement signal (BRET). IC50 values were calculated by fitting BRET values to a log(inhibitor) vs. response Hill equation.
(In BRET a luciferase serves as donor, and the signal depends on an acceptor being close.)

A further assay deals with T2, AKT1 WT (Homo sapiens, UniProt P31749).
T2 construct: expressed in transfected cells; host or cells: HEK293
T2 sequence (P31749 whole entry): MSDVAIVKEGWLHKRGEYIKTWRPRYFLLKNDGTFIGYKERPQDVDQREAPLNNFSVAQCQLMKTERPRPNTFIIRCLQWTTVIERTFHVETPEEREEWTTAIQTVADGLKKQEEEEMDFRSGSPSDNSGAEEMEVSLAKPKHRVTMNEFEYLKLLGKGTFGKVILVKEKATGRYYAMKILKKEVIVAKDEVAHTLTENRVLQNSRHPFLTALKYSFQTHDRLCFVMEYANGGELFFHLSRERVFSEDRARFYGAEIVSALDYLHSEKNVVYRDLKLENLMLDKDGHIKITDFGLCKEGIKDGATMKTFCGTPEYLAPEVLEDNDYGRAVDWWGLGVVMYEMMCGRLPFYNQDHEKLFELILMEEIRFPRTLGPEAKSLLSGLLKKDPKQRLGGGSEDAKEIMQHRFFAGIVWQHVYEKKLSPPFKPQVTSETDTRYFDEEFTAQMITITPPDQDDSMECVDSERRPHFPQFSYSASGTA
As to the kind of experiment: Live cell AKT1 WT target engagement by NanoBRET competitive probe displacement in HEK293 cells. Format: binding. The conditions noted are these: 2 h at 37° C., read-out: AKT1 WT IC50. The protocol:
as §1

Where [1] appears, read: NanoBRET competitive probe displacement, live HEK293 cells.
[2] abbreviates: NanoBRET live cell target engagement, HEK293 cells.

Structures are written as SMILES. Read-outs that look alike come from different tables or passages of the source.

T1 sequence (P31751 whole entry): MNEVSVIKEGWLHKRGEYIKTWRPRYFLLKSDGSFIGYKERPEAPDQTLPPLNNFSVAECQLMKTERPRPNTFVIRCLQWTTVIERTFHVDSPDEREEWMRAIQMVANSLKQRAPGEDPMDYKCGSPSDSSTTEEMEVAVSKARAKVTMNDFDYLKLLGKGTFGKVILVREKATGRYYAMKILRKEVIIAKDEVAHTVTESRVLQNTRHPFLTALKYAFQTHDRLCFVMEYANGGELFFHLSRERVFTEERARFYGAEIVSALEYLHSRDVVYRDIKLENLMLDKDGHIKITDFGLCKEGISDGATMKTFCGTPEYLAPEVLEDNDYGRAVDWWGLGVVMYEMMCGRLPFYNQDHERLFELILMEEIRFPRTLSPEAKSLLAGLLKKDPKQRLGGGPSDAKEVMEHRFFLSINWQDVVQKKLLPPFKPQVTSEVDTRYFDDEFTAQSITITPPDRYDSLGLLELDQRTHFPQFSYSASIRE

As usually defined, the IC50 is the concentration that gives 50% inhibition. For `Cc1ccc(C(=O)N[C@H]2CCc3cc(-n4c(-c5ccccc5)nc5ccc(-n6cccn6)nc54)ccc32)cn1` [Compound 400], the IC50 at AKT2 (setting [1]) was found to be 2.1 µM; on AKT1 WT (setting [1]), 0.0144 µM.
For the compound `Nc1ncccc1-c1nc2ccc(-n3cccn3)nc2n1-c1ccc2c(c1)CC[C@@H]2NC1CCCc2ccncc21` (stereo partly drawn) [Compound 501], the IC50 is 0.695 µM at AKT2 (setting [1]) and 0.0205 µM at AKT1 WT (setting [1]).
Consider `CC(=O)Nc1c(F)cc(C(=O)N[C@H]2CCc3cc(-n4c(-c5cccnc5N)nc5ccc(-n6cccn6)nc54)ccc32)cc1F` [Compound 294], for which the values for the IC50 on AKT2 (setting [2]) and on AKT1 WT (setting [2]) were 0.0291 µM and 0.00527 µM, respectively.
For `Nc1ncccc1-c1nc2ccc(-c3ccn(C(F)F)n3)nc2n1-c1ccc2c(c1)CC[C@@H]2NC1CCN(C(=O)C2CC2)CC1` [Compound 434], the values for the IC50 on AKT2 (setting [1]) and at AKT1 WT (setting [1]) were 1.3 µM and 0.0577 µM, respectively.
As for `Nc1ncccc1-c1nc2ccc(-n3cccn3)nc2n1-c1ccc2c(c1)CC[C@@H]2NC(=O)c1ccc2nccn2n1` [Compound 236], the IC50 at AKT2 (setting [2]) was 0.158 µM; at AKT1 WT (setting [2]), 0.0121 µM.
In the case of `COc1nccc(C(=O)N[C@H]2CCc3cc(-n4c(-c5cccnc5N)nc5ccc(-n6nccn6)nc54)ccc32)c1C` [Compound 380], the IC50 was 0.312 µM on AKT2 (setting [2]) and 0.0139 µM on AKT1 WT (setting [2]).
For the compound `COc1ccc(C(=O)N[C@H]2CCc3cc(-n4c(-c5cccnc5N)nc5ccc(-n6cccn6)nc54)ccc32)cc1F` [Compound 241], the IC50 on AKT2 (setting [2]) is 0.0157 µM; at AKT1 WT (setting [2]), 0.00406 µM.
As for `Cc1cc(C(=O)N[C@H]2CCc3cc(-n4c(-c5cccnc5N)nc5ccc(-n6cccn6)nc54)ccc32)nn1C` [Compound 126], the IC50 worked out at 0.532 µM on AKT2 (setting [2]) and 0.721 µM on AKT1 WT (setting [2]).
For `Nc1ncccc1-c1nc2ccc(-n3cccn3)nc2n1-c1ccc2c(c1)CC[C@@H]2NC(=O)c1cnc2cccn2c1` [Compound 291], the half-inhibitory concentration (IC50) came to 0.0565 µM on AKT2 (setting [2]) and 0.00514 µM on AKT1 WT (setting [2]).
Regarding `Nc1ncccc1-c1nc2ccc(-n3cccn3)nc2n1-c1ccc2c(c1)CC[C@@H]2NCc1ccnc(OC(F)(F)F)c1` [Compound 305], the IC50 on AKT2 (setting [2]) was found to be 1.16 µM; at AKT1 WT (setting [2]) it was 0.0321 µM.
As for `COCc1ccn(-c2ccc3nc(-c4cccnc4N)n(-c4ccc5c(c4)CC[C@@H]5NC4CCN(C(=O)C5CC5)CC4)c3n2)n1` [Compound 590], the values for the IC50 on AKT2 (setting [1]) and on AKT1 WT (setting [1]) were 1.54 µM and 0.0452 µM, respectively.
For the compound `Cc1cnc(C(=O)N[C@H]2CCc3cc(-n4c(-c5cccnc5N)nc5ccc(-n6cccn6)nc54)ccc32)c(C)n1` [Compound 207], the IC50 is 2.52 µM on AKT2 (setting [2]) and 0.151 µM on AKT1 WT (setting [2]).
For the compound `Cn1c(C(=O)N[C@H]2CCc3cc(-n4c(-c5cccnc5N)nc5ccc(-n6nccn6)nc54)ccc32)cnc1C1CC1` [Compound 540], the IC50 on AKT2 (setting [1]) was 3.18 µM; at AKT1 WT (setting [1]), 0.107 µM.
As to `COc1cnn(-c2ccc3nc(-c4cccnc4N)n(-c4ccc5c(c4)CC[C@@H]5NC4CCN(C(=O)C5CC5)CC4)c3n2)c1` [Compound 485], the IC50 stood at 0.997 µM at AKT2 (setting [1]) and 0.0509 µM on AKT1 WT (setting [1]).
`Nc1ncccc1-c1nc2ccc(-n3cccn3)nc2n1-c1ccc2c(c1)CC[C@@H]2NC1CCN(C(=O)[C@H]2CC2(F)F)CC1` [Compound 476]: the IC50 is over 10 µM at AKT2 (setting [1]) and 0.209 µM at AKT1 WT (setting [1]).
Regarding `Cc1ccc(C(=O)N[C@H]2CCc3cc(-n4c(-c5ccccc5)nc5ccc(-c6ccn(C7CC7)n6)nc54)ccc32)cn1` [Compound 431, (S)—N-(5-(5-(1-cyclopropyl-1H-pyrazol-3-yl)-2-phenyl-3H-imidazo[4,5-b]pyridin-3-yl)-2,3-dihydro-1H-inden-1-yl)-6-methylnicotinamide], the IC50 at AKT2 (setting [1]) amounted to 0.9 µM; at AKT1 WT (setting [1]), 0.0167 µM.
`Nc1ncccc1-c1nc2ccc(C#CC3CC3)nc2n1-c1ccc2c(c1)CC[C@@H]2NC(=O)c1ccc(C(F)F)nc1` [Compound 406]: the half-inhibitory concentration (IC50) at AKT2 (setting [1]) was 0.903 µM; on AKT1 WT (setting [1]), 0.0204 µM.
For `COc1ncncc1C(=O)N[C@H]1CCc2cc(-n3c(-c4cccnc4N)nc4ccc(-n5cccn5)nc43)ccc21` [Compound 157], the IC50 at AKT2 (setting [2]) is 0.521 µM; at AKT1 WT (setting [2]), 0.0405 µM.
Turning to `Cc1nc(C2CC2)ccc1C(=O)N[C@H]1CCc2cc(-n3c(-c4cccnc4N)nc4ccc(-n5nccn5)nc43)ccc21` [Compound 539], the IC50 was 0.43 µM at AKT2 (setting [1]) and 0.00511 µM at AKT1 WT (setting [1]).
Turning to `Cc1cn([C@H]2CCc3cc(-n4c(-c5cccnc5N)nc5ccc(-n6cccn6)nc54)ccc32)nn1` [Compound 304], the IC50 was found to be 4.75 µM on AKT2 (setting [2]) and 0.0808 µM on AKT1 WT (setting [2]).
Take `Nc1ncccc1-c1nc2ccc(-n3cccn3)nc2n1-c1ccc2c(c1)CC[C@@H]2NC(=O)c1ccc2c(c1)CC(=O)N2` [Compound 194]: the IC50 on AKT2 (setting [2]) is 0.0395 µM; on AKT1 WT (setting [2]), 0.00937 µM.
`Nc1ncccc1-c1nc2ccc(-n3cccn3)nc2n1-c1ccc2c(c1)CC[C@@H]2NC(=O)N1CCOCC1` [Compound 27, (S)—N-(5-(2-(2-aminopyridin-3-yl)-5-(1H-pyrazol-1-yl)-3H-imidazo[4,5-b]pyridin-3-yl)-2,3-dihydro-1H-inden-1-yl)morpholine-4-carboxamide]: the IC50 at AKT2 (setting [2]) was over 10 µM; at AKT1 WT (setting [2]) it was over 1 µM.
For `Nc1ncccc1-c1nc2ccc(-n3cccn3)nc2n1-c1ccc2c(c1)CC[C@@H]2NC(=O)c1cccnc1Cl` [Compound 108] the same measures were 0.223 µM and 0.0188 µM.
Consider `COc1cncc(C(=O)N[C@H]2CCc3cc(-n4c(-c5cccnc5N)nc5ccc(-n6cccn6)nc54)ccc32)n1` [Compound 348], for which the IC50 is 2.6 µM on AKT2 (setting [2]) and 0.0582 µM at AKT1 WT (setting [2]).
Consider `Nc1ncccc1-c1nc2ccc(-n3cccn3)nc2n1-c1ccc2c(c1)CC[C@@H]2NC(=O)c1cc(C(F)F)ns1` [Compound 452], for which the IC50 came to 0.131 µM at AKT2 (setting [1]) and 0.00663 µM at AKT1 WT (setting [1]).
For the compound `Nc1ncccc1-c1nc2ccc(-c3ccn(C(F)F)n3)nc2n1-c1ccc2c(c1)CC[C@@H]2NC(=O)c1ccc(C(F)(F)F)nc1` [Compound 421], the results for the IC50 on AKT2 (setting [1]) and at AKT1 WT (setting [1]) were 0.0379 µM and 0.00352 µM, respectively.
In the case of `N#Cc1cc(-n2ccc(F)n2)nc2c1nc(-c1cccnc1N)n2-c1ccc2c(c1)CC[C@@H]2NC(=O)c1ccc(C(F)F)nc1` [Compound 329], the IC50 on AKT2 (setting [2]) turned out to be 0.143 µM; at AKT1 WT (setting [2]), 0.0147 µM.
Take `COc1ccn(-c2ccc3nc(-c4cccnc4N)n(-c4ccc5c(c4)CC[C@@H]5NC4CCN(C(=O)C5CC5)CC4F)c3n2)n1` (stereo partly drawn) [Compound 515]: the figures for the IC50 on AKT2 (setting [1]) and at AKT1 WT (setting [1]) were 0.452 µM and 0.0121 µM, respectively.
For `CN(C)C(=O)c1cc(C(=O)N[C@H]2CCc3cc(-n4c(-c5cccnc5N)nc5ccc(-n6cccn6)nc54)ccc32)ccc1O` [Compound 414], the half-inhibitory concentration (IC50) on AKT2 (setting [1]) is 0.562 µM; on AKT1 WT (setting [1]), 0.0261 µM.
For `Nc1ncccc1-c1nc2ccc(-n3cccn3)nc2n1-c1ccc2c(c1)CC[C@@H]2NC(=O)c1cc(F)c2[nH]ncc2c1` [Compound 261], the values for the IC50 on AKT2 (setting [2]) and on AKT1 WT (setting [2]) were 0.0467 µM and 0.00475 µM, respectively.
In the case of `Cc1nnc(-c2ccc3nc(-c4cccnc4N)n(-c4ccc5c(c4)CC[C@@H]5NC4CCN(C(=O)C5CC5)CC4)c3n2)s1` [Compound 516], the IC50 on AKT2 (setting [1]) was 6.24 µM; on AKT1 WT (setting [1]) it was 0.102 µM.
Regarding `Nc1ncccc1-c1nc2ccc(-n3cccn3)nc2n1-c1ccc2c(c1)CC[C@@H]2NC1CCN(C(=O)C2COC2)CC1` [Compound 423], the IC50 is 2.62 µM on AKT2 (setting [1]) and 0.188 µM on AKT1 WT (setting [1]).
For the compound `Cc1cc(C(F)F)ncc1C(=O)N[C@H]1CCc2cc(-n3c(-c4cccnc4N)nc4ccc(-n5nccn5)nc43)ccc21` [Compound 397], the IC50 is 1.44 µM at AKT2 (setting [1]) and 0.0165 µM on AKT1 WT (setting [1]).
Regarding `COc1cncc(-c2ccc3nc(-c4cccnc4N)n(-c4ccc5c(c4)CC[C@@H]5NC4CCN(C(=O)C5CC5)CC4)c3n2)n1` [Compound 577], the values for the IC50 at AKT2 (setting [1]) and at AKT1 WT (setting [1]) were 0.904 µM and 0.0879 µM, respectively.
Taken in the same sequence, the figures for `Nc1ncccc1-c1nc2ccc(-n3cccn3)nc2n1-c1ccc2c(c1)CC[C@@H]2NC1CCN(C(=O)C2CC2)CC1F` (stereo partly drawn) [Compound 446] were 1.33 µM and 0.0319 µM.
`COc1cc(C(=O)N[C@H]2CCc3cc(-n4c(-c5cccnc5N)nc5ccc(-n6cccn6)nc54)ccc32)sn1` [Compound 429]: the IC50 on AKT2 (setting [1]) was found to be 0.057 µM; at AKT1 WT (setting [1]), 0.00564 µM.
As for `Nc1ncccc1-c1nc2ccc(-n3cccn3)nc2n1-c1ccc2c(c1)CC[C@@H]2NC(=O)c1ccc2[nH]ncc2c1` [Compound 193], the IC50 turned out to be 0.0423 µM on AKT2 (setting [2]) and 0.00671 µM on AKT1 WT (setting [2]).
With `Nc1ncccc1-c1nc2ccc(-n3cccn3)nc2n1-c1ccc2c(c1)CC[C@@H]2NC(=O)c1cccc(F)c1` [Compound 332], the IC50 at AKT2 (setting [2]) stood at 0.0602 µM; at AKT1 WT (setting [2]), 0.00758 µM.
With `Nc1ncccc1-c1nc2ccc(-n3cccn3)nc2n1-c1ccc2c(c1)CC[C@@H]2NC(=O)c1cccnc1OC(F)(F)F` [Compound 78], the results for the IC50 on AKT2 (setting [2]) and at AKT1 WT (setting [2]) were 1.91 µM and 0.106 µM, respectively.
Take `COc1cc(C(=O)N[C@H]2CCc3cc(-n4c(-c5cccnc5N)nc5ccc(-n6cccn6)nc54)ccc32)nn1C` [Compound 216]: the IC50 on AKT2 (setting [2]) turned out to be 1.39 µM; on AKT1 WT (setting [2]), 0.0584 µM.
For the compound `Nc1ncccc1-c1nc2ccc(-n3cccn3)nc2n1-c1ccc2c(c1)CC[C@@H]2NC(=O)c1ccnc(C#Cc2ccccc2)c1` [Compound 209], the IC50 is 0.316 µM at AKT2 (setting [2]) and 0.0377 µM on AKT1 WT (setting [2]).
Taken in the same sequence, the figures for `Cc1ncc(C(=O)N[C@H]2CCc3cc(-n4c(-c5cccnc5N)nc5ccc(-n6cccn6)nc54)ccc32)s1` [Compound 120] were 0.103 µM and 0.00561 µM.
